Results taken from ChEMBL document CHEMBL1201862, “PubChem BioAssay data set” (2004).
Each block holds one molecule with its values, some of them ahead of it. Active and inactive are the calls of the source.

Tests used:
[1] = biological target: T1, Cytochrome P450 2C19 (Homo sapiens, UniProt P33261); assay: qHTS Assay for Inhibitors and Substrates of Cytochrome P450 2C19. [Related pubchem assays: 410 ]; format: ADME; conditions: read-out: Potency
[2] = biological target: Cytochrome P450 2C9 (Homo sapiens, UniProt P11712)
[3] = biological target: Peroxisome proliferator-activated receptor gamma/Nuclear receptor corepressor 2 (Homo sapiens, UniProt P37231+Q9Y618); assay: Counterscreen for NR2E3 inverse agonists: TR-FRET-based biochemical high throughput dose response assay to identify inverse agonists of the interaction between peroxisome proliferator-activated receptor gamma (PPARg) and nuclear receptor co-repressor 2 (NCOR2).; format: functional
[4] = biological target: Photoreceptor-specific nuclear receptor (Homo sapiens, UniProt Q9Y5X4); assay: NR2E3 inverse agonists, dose response, biochemical, TR-FRET (AID 463256); format: functional
[5] = biological target: ADP-ribosylation factor GTPase-activating protein 1 (Rattus norvegicus, UniProt Q62848); assay: Fluorescence polarization-based biochemical high throughput dose response screening assay to identify inhibitors of ADP-ribosylation factor GTPase activating protein 1 (ARFGAP1).; format: functional
[6] = biological target: T1, Cytochrome P450 2C19; assay: Cytochrome panel assay with activity outcomes. Panel member name: p450-cyp2c19 Compounds with AC50 equal or less than 10 uM are considered active; format: functional
[7] = Luminescent dose response cell-based high throughput screening assay for inhibitors of the Janus kinase 2 mutant JAK2V617F. [Related pubchem assays: 1446 (Primary screen.), 1521 (Confirmation assay.), 1486 (Counter screen.)]; format: functional
[8] = biological target: T2, Alkaline phosphatase, tissue-nonspecific isozyme (Homo sapiens, UniProt P05186); assay: human TNAP enzyme inhibitors, SAR follow-up, biochemical, luminescent, dose response (AID 1056)
T2 sequence (P05186 whole entry): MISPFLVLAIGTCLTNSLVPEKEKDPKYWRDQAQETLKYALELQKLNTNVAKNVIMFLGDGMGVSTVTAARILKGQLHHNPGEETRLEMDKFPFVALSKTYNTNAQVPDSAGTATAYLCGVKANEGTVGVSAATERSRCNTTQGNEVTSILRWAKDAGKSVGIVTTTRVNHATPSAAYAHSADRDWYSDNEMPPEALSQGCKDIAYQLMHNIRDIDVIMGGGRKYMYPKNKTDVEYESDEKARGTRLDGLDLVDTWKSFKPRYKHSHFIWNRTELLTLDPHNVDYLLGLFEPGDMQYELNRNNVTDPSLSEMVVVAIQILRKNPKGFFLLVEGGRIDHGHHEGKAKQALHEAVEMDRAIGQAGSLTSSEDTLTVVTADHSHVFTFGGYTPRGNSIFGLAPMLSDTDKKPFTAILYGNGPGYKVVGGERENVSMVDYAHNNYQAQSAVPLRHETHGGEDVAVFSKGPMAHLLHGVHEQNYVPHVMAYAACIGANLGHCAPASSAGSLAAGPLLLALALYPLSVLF

[9] = biological target: T3, Rac GTPase-activating protein 1 (Homo sapiens, UniProt Q9H0H5); assay: MgcRacGAP GTPase-activating activity inhibitors, confirmation, biochemical, ADP Hunter fluorescence, primary and confirmatory (AID 624330); format: functional
T3 sequence (Q9H0H5 whole entry): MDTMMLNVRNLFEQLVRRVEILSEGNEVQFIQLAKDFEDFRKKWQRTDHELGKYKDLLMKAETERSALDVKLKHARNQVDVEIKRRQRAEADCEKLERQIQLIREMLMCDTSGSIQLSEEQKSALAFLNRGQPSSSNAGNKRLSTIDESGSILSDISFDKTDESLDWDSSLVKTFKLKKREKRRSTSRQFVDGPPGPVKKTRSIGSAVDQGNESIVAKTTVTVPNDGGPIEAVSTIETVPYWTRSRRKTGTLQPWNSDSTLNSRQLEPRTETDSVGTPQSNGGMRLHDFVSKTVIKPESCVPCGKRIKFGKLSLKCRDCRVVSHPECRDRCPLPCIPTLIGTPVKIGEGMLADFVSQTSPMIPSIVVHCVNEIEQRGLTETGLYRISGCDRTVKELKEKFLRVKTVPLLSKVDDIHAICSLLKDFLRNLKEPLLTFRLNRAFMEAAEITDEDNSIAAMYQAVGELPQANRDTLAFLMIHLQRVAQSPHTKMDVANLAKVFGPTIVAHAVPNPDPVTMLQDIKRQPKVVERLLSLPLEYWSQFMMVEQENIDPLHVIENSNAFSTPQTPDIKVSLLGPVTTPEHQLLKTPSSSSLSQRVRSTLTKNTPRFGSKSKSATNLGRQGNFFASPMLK

[10] = biological target: Alkaline phosphatase, placental type (Homo sapiens, UniProt P05187); assay: PLAP enzyme inhibitors, confirmation, biochemical, luminescence (AID 1512); format: functional
Alkaline phosphatase, placental type, sequence (P05187 whole entry): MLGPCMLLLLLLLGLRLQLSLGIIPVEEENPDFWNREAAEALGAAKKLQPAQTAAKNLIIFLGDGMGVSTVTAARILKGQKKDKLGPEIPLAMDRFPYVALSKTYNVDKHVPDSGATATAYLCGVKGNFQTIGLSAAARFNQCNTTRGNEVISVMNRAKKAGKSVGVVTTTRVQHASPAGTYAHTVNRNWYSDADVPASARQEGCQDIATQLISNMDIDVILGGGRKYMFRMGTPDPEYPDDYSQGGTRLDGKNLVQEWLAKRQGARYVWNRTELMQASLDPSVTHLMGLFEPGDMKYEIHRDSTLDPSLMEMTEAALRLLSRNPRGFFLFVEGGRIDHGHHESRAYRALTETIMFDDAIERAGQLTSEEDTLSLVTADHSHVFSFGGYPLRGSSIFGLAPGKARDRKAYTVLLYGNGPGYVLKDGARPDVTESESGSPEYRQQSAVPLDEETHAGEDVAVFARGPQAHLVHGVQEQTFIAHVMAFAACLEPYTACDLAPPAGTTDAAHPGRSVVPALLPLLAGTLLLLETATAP

T1 sequence (P33261 whole entry): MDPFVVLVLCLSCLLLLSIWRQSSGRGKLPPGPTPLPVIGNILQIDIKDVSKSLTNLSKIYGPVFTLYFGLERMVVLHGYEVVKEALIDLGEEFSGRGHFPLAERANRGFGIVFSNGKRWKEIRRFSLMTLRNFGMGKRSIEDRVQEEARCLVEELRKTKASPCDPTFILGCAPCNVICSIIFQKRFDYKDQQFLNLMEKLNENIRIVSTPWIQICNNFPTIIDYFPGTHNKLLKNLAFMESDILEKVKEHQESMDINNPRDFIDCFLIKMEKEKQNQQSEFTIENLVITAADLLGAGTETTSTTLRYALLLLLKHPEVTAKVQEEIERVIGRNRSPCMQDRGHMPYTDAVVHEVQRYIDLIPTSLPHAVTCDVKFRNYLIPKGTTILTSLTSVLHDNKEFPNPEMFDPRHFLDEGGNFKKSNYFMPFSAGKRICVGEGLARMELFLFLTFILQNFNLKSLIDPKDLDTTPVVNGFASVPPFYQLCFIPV
Photoreceptor-specific nuclear receptor, sequence (Q9Y5X4 whole entry): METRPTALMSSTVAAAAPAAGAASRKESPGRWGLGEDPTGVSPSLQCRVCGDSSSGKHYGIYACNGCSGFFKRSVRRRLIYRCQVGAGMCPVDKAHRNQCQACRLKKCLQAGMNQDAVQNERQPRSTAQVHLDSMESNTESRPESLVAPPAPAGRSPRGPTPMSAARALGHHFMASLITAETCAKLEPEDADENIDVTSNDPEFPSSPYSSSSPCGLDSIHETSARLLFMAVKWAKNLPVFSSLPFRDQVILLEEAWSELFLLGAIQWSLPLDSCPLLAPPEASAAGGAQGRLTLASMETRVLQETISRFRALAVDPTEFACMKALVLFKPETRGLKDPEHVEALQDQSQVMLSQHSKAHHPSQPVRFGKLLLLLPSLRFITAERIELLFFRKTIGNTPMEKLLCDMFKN
Peroxisome proliferator-activated receptor gamma/Nuclear receptor corepressor 2, sequence (P37231 whole entry): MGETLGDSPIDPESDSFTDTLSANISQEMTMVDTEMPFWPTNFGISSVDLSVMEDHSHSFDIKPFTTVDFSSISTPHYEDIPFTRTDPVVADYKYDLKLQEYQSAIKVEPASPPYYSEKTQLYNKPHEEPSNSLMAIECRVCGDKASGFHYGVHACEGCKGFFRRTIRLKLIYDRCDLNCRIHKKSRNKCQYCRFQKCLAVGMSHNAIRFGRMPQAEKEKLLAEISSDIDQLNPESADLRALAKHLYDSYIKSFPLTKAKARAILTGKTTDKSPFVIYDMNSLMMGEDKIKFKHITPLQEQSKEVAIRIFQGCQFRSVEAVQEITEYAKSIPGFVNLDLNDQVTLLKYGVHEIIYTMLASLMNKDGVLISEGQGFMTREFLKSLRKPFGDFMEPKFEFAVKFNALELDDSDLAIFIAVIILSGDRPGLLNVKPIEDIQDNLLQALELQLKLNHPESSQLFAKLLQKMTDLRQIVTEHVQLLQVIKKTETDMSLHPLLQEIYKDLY
Peroxisome proliferator-activated receptor gamma/Nuclear receptor corepressor 2, sequence (Q9Y618 whole entry): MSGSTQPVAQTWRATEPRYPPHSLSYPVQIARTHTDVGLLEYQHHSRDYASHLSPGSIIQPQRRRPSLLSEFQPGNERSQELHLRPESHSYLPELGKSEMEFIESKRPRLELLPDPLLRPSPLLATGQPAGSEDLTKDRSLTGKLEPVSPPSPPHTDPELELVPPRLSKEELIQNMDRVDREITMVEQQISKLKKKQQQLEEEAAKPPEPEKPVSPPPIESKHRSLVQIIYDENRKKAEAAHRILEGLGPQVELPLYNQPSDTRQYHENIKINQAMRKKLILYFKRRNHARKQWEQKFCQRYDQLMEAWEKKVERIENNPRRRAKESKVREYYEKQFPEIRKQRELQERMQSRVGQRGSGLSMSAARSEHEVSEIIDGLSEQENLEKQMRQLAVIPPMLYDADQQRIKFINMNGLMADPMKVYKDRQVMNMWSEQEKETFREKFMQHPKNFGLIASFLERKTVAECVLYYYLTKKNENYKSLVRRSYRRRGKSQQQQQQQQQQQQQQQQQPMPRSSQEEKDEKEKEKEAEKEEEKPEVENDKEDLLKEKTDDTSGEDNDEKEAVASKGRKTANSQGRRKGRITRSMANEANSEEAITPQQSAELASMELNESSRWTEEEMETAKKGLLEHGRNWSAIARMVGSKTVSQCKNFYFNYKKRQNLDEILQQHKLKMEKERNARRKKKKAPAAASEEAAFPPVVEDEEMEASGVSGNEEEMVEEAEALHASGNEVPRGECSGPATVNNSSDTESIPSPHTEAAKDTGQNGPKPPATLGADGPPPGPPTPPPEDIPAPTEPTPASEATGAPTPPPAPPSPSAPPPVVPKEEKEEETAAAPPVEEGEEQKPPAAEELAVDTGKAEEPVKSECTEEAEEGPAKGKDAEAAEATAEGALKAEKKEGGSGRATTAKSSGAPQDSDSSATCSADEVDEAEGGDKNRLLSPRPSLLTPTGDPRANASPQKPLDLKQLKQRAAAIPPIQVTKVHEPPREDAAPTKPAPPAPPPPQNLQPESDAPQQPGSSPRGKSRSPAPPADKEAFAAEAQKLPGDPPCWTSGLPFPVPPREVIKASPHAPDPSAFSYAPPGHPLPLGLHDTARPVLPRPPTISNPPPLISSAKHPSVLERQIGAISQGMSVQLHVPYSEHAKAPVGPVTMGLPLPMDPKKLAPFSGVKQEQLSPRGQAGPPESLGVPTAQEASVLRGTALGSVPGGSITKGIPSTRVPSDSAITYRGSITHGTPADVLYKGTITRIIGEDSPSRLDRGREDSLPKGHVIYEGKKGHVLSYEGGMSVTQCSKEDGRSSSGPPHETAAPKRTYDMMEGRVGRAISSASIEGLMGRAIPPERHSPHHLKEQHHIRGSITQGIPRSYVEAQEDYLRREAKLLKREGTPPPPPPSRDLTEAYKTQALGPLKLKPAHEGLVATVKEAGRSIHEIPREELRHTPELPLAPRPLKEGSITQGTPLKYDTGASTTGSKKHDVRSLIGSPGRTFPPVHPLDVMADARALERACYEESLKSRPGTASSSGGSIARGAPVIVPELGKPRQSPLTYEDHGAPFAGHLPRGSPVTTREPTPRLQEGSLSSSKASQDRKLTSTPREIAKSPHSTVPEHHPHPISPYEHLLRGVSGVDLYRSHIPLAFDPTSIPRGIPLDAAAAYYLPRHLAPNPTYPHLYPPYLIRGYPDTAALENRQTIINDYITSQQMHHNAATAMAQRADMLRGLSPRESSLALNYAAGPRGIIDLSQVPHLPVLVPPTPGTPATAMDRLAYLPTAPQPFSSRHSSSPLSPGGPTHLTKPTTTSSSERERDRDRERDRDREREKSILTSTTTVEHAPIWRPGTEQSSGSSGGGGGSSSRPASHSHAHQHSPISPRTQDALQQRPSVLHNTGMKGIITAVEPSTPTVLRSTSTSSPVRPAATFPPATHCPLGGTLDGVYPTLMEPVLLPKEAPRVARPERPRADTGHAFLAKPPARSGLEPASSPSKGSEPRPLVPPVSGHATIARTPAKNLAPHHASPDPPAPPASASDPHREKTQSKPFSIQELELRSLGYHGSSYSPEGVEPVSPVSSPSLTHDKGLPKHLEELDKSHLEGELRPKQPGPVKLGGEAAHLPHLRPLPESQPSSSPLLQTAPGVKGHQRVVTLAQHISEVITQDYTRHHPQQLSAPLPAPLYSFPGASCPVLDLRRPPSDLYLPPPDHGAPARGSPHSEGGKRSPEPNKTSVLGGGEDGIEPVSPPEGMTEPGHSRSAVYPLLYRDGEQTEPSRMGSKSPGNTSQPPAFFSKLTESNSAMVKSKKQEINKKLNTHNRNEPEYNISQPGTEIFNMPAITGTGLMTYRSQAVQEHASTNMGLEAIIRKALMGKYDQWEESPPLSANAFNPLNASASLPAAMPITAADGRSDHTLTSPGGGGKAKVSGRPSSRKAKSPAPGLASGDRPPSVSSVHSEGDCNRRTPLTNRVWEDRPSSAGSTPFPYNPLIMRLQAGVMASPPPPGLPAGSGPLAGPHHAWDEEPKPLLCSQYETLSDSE
ADP-ribosylation factor GTPase-activating protein 1, sequence (Q62848 whole entry): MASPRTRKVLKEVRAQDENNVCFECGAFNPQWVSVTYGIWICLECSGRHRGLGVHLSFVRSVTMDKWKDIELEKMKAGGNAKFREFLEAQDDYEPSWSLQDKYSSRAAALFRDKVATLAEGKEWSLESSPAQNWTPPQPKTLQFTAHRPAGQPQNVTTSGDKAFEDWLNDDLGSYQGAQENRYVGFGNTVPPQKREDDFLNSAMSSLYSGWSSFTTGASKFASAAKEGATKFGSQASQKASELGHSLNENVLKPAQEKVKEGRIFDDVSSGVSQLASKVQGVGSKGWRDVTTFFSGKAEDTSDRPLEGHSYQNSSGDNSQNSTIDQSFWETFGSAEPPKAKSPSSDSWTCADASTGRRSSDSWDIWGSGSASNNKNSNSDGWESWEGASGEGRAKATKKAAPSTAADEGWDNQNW

AC50 [1]: 0.794 µM (inconclusive)
SMILES: CC(=O)c1ccc(C2C=CC(Oc3ccc(-c4ccccc4)cc3)C(CO)O2)cc1 (stereo not given)

AC50 [2]: inconclusive | IC50 [3]: > 39.8 µM (not active) | IC50 [4]: > 39.8 µM (not active) | IC50 [5]: 17.9 µM (inactive) | AC50 [6]: inconclusive
SMILES: O=C(Nc1ccc(-c2cc3ccccc3oc2=O)c(Cl)c1)c1cccnc1

SMILES: O=C(CSc1nnnn1-c1ccc(F)cc1)c1ccc(O)c(O)c1
IC50 [7]: 2.16 µM (active) | IC50 [8]: 5.98 µM (active) | IC50 [9]: 80.6 µM (active) | IC50 [10]: 1.89 µM (active)
